Measured values taken from US20060193776A1, “Screening methods employing zebrafish and the blood brain barrier” (priority 2004, published 2006).
Values belong to the compound of their own block, whether it stands above or below them.

Assays:
[1] = mammals; cited from earlier work
zebrafish = experiment: DMSO tolerance of zebrafish; type: in vivo; settings: added to the fish water
Excerpt: Zebrafish are also DMSO (dimethyl sulphoxide) tolerant. This is important as DMSO is used as a solvent to dissolve many drugs. The inventors have established that zebrafish can tolerate 1% DMSO. Thus, a candidate drug or other test substance may be dissolved in DMSO and administered to zebrafish by adding to the fish water to give a final concentration of DMSO of at least up to 1%. This is employed in various preferred aspects and embodiments of the present invention.

[2] = clinical, humans; cited from earlier work
[3] = test system: blood brain barrier of zebrafish larvae; experiment: Dye exclusion experiments: dye injected into pericardial region, fluorescence intensity in the brain quantified
Experimental: Evans Blue dye (961 Da) was used to investigate the presence of BBB in zebrafish larvae. […] In rodents, Evans Blue leakage is observed following brain trauma.
1) 2% Evans Blue in 0.9% saline was injected into pericardial sac of larvae from 2 days post-fertilisation (d.p.f.) to 1 month old. 0.9% saline was injected as a control.
2) The larvae were left to develop for 6 hours to allow the dye to penetrate from bloodstream into tissues.
3) The larvae were viewed under fluorescent dissecting scope (TRITC filter) to ensure that dye was present in blood vessels.
5) They were embedded in O.C.T. (Optimal Cutting Temperature compound) and 10 μm frozen sections were taken in parasaggital plane.
6) Midline sections were viewed on fluorescent microscope (TRITC filter) at ×40 magnification. Images were taken of Evans Blue injected and saline injected samples.
7) Fluorescent intensity was measured in 3 regions of control and Evans Blue injected samples using AnalySis software. Mean fluorescent intensity was calculated for each age group.
Injection stocks of 2% evans blue in 0.9% saline and a 10% sodium fluorescein in 0.9% saline were prepared and stored at 4° C. Larvae were anaesthetised by immersion in 0.2 mg/ml 3-amino benzoic acid (MS222) prior to being immobilised and oriented in 3% methyl cellulose in embryo medium in a lateral position such that the heart was accessible. Larvae and juveniles from 2 days post-fertilisation (d.p.f.) to 30 d.p.f. were injected into the pericardial region with 0.5 to 2 nl of dye or saline control, depending on age, using standard zebrafish egg microinjection apparatus (Westerfield, 1995). Fish were transferred to fresh embryo medium to recover from anaesthesia, then viewed using a fluorescence dissecting microscope at 1 hour intervals to determine the time of uptake of the dye into the circulation and the time at which dye had permeated from the circulation into non-vascular body tissue. Dye and saline injected larvae were anaesthetised at 4 hours and 6 hours after injection and fixed in 4% paraformaldehyde in PBS. 10 larvae per age group and injection treatment were embedded in Sakura Tissue-Tek OCT Compound (Bayer, Newbury, UK) and frozen parasagittal sections were cut at 10 μm thickness.
Sections were visualised without mounting medium by fluorescence microscopy on an Olympus BX51 microscope. Three midline sagittal sections from each larva were identified and images were captured using a ColorView camera (Olympus) and AnalySis software (Soft Imaging System). The fluorescence intensity within the brain was quantified for each midline section of each larva in each treatment group using colour threshold and area measurements in AnalySis. Mean values, standard deviations and T-tests were calculated using Excel software (Microsoft Office).

[4] = rodents; cited from earlier work

Compound: Clc1ccc2c(c1)CCc1cccnc1C2=C1CCNCC1 [desloratadine]
crosses the BBB [1]: does not cross the BBB

Compound: C[S+](C)[O-] [DMSO, dimethyl sulphoxide]
concentration tolerated by zebrafish (zebrafish): 1%

Compound: CCOC(=O)N1CCC(=C2c3ccc(Cl)cc3CCc3cccnc32)CC1 [loratadine]
sedating or non-sedating antihistamine [2]: non-sedating

Compound: OCCOCCN1CCN(C(c2ccccc2)c2ccc(Cl)cc2)CC1 (stereo not drawn) [hydroxyzine]
sedating or non-sedating antihistamine [2]: sedating

Compound: Cc1cc(-c2ccc(/N=N/c3ccc4c(S(=O)(=O)O)cc(S(=O)(=O)O)c(N)c4c3O)c(C)c2)ccc1/N=N/c1ccc2c(S(=O)(=O)O)cc(S(=O)(=O)O)c(N)c2c1O [Evans Blue]
fluorescence in the brain ([3]; 3 d.p.f., dye injected into pericardial sac, 6 hours): High level of fluorescence in the brain | brain fluorescence compared with saline injected samples ([3]; 5 d.p.f., dye injected into pericardial sac, 6 hours): no different from saline injected samples | change of fluorescent intensity in the brain with age ([3]; FIG. 2, days post-fertilisation): age dependent decrease | day from which excluded from the brain ([3]; peripheral injection): 5 days | exclusion from the brain [4]: excluded from the brain if the BBB is intact

age at which fluorescent intensity in the brain decreases sharply (exclusion from the brain) ([3]; zebrafish, in vivo): 8 d.p.f.
Compound: rhodamine 123

Compound: O=C([O-])c1ccccc1-c1c2ccc(=O)cc-2oc2cc([O-])ccc12.[Na+].[Na+] [sodium fluorescein]
day from which excluded from the brain ([3]; peripheral injection): 10 days | day until which it permeates into the brain ([3]; peripheral injection): 8 days | age at which fluorescent intensity in the brain decreases sharply (exclusion from the brain) ([3]; peripheral injection, versus saline controls): 10 d.p.f.

Compound: Cc1ccc(/C(=C\CN2CCCC2)c2ccccn2)cc1 [triprolidine]
sedating or non-sedating antihistamine [2]: sedating

Compound: O=C(O)COCCN1CCN(C(c2ccccc2)c2ccc(Cl)cc2)CC1 (stereo not drawn) [cetirizine]
sedating or non-sedating antihistamine [2]: non-sedating
